Measured values published in US10166216B2 (Rigel Pharmaceuticals, Inc., priority 2006, dated 2019).
pIC50: −log10 of the molar value.

Molecular target: Axl (Homo sapiens (Human), UniProt P30530)
Experiment: Phospho-Akt in-cell Western assay (Axl-antibody cross-linking stimulation)
Assay type: cell-based
Details: inhibition of Axl activity
Method: The working solution: dilute the stock 1:20 with PBS immediately before use. • 10% SDS: working solution: 5% SDS (sodium dodecylsulfate), diluted in PBS Methods: Day 1:
A 96 well TC (tissue culture treated) plate was coated with 10 μg/mL poly-L-Lysine at 37° C. for 30 min, washed twice with PBS, and air-dried for 5 minutes before cells were added. Hela cells were seeded at 10,000 cells/well and the cells were starved in 100 μL starvation medium containing Axl/Fc for 24 hrs.
The cells were pre-treated with test compounds by adding 100 μL of 2× test compound to the starvation medium on the cells. The cells were incubated at 37° C. for 1 hr before stimulation.
The resulting mix was warmed to 37° C. 50 μL of 5× Axl 1st/2nd of antibody cluster was added to the cells and the cells were incubated at 37° C. for 5 min.
After 5 minutes stimulation, the plate was flicked to remove medium and the plate was tapped onto paper towels. Formaldehyde (4.0% in PBS, 100 μL) was added to fix the cells and the cells were incubated at ambient temperature for 20 min without shaking.
The cells were washed with a plate washer buffer to remove the formaldehyde solution. The plate was flicked to removed excess wash buffer and tapped onto paper towels. Quenching buffer (100 μL) was added to each well and the cells were incubated at ambient temperature for 20 minutes without shaking.
The cells were washed with a plate washer buffer to remove the quenching buffer. Blocking buffer (100 μL) was added and the cells were incubated at ambient temperature for at least an hour with gentle shaking.
The cells were washed with a plate washer buffer and diluted primary antibody (50 μL) was added to each well (blocking buffer was added to the negative control wells instead). The plates were incubated overnight at 4° C. with gentle shaking.
The wash buffer was removed, diluted secondary antibody (100 μL) was added, and the cells were incubated at ambient temperature for 1 hour with gentle shaking. During the incubation, the chemiluminescent reagent was brought to ambient temperature.
The secondary antibody was removed by washing the cells 1× with wash buffer, 1× with PBS by plate washer. The PBS was removed from the plate and the chemiluminescent reagent (80 μL: 40 μL A and 40 μL B) was added to each well at ambient temperature.
The resulting chemiluminescence was read with a Luminomitor within 10 minutes to minimize changes in signal intensity. […] The plate was tapped onto paper towels to remove excess liquid from wells and air-dried at ambient temperature for 5 minutes.
Crystal Violet working solution (60 μL) was added to each well and the cells were incubated at ambient temperature for 30 min. The crystal violet solution was removed, and the wells were rinsed with PBS, then washed 3× with PBS (200 μL) for 5 minutes each.
5% SDS solution (70 μL) was added to each well and the cells were incubated on a shaker for 30 min at ambient temperature.
This relative cell number was then used to normalize each luminescence reading. […]

[1] = Hela cells, phospho-Akt readout, Table 1, formula (Ia1)
[2] = phospho-Akt in-cell Western assay
[3] = Hela cells, phospho-Akt readout, Table 4, formula (Ib2)

Sequence of Axl (P30530 26-894): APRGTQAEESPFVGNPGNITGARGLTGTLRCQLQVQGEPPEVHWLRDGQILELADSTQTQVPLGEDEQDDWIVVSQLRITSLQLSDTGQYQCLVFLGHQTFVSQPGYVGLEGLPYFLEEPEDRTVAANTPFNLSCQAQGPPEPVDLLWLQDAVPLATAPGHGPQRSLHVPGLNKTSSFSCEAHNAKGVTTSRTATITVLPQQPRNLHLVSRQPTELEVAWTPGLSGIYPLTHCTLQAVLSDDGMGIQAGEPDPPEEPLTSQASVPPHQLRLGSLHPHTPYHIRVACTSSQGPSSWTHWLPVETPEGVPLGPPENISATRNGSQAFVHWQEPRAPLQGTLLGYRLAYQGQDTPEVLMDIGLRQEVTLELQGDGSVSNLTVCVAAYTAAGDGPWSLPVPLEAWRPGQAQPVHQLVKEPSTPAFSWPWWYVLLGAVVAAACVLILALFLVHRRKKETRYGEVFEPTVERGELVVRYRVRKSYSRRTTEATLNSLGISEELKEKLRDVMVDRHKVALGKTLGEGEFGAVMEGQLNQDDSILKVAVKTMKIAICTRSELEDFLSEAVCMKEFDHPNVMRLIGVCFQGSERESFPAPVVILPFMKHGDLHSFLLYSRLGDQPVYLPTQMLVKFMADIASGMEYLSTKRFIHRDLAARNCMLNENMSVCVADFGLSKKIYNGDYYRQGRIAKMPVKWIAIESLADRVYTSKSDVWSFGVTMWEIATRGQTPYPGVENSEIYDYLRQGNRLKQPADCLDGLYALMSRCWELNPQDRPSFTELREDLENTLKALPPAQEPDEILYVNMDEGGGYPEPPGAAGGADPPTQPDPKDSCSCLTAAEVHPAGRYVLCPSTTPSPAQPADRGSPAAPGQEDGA

Nc1nc(Nc2ccc(OCCN3CCCC3)cc2)nn1-c1nc(O)c2c(n1)CCCC2 [Compound 76, 2-(5-amino-3-(4-(2-(pyrrolidin-1-yl)ethoxy)phenylamino)-1H-1,2,4-triazol-1-yl)-5,6,7,8-tetrahydroquinazolin-4-ol]
pIC50 [1]: < 4.70

COc1cc2ccnc(-n3nc(Nc4ccc(OCCN5CCCC5)cc4)nc3N)c2cc1OC [Compound 77, 1-(6,7-dimethoxyisoquinolin-1-yl)-N^3-(4-(2-(pyrrolidin-1-yl)ethoxy)phenyl)-1H-1,2,4-triazole-3,5-diamine]
pIC50 [1]: > 6.00

Nc1nc(Nc2ccc(OCCN3CCCC3)cc2)nn1-c1nccc2[nH]c(=O)ccc12 [Compound 78, 5-(5-amino-3-(4-(2-(pyrrolidin-1-yl)ethoxy)phenylamino)-1H-1,2,4-triazol-1-yl)-1,6-naphthyridin-2(1H)-one]
pIC50 [1]: > 6.00

Nc1nc(Nc2ccc(N3CCN(C4CCCCC4)CC3)cc2)nn1-c1nccc2ccccc12 [Compound 81, N^3-(4-(4-cyclohexylpiperazin-1-yl)phenyl)-1-(isoquinolin-1-yl)-1H-1,2,4-triazole-3,5-diamine]
pIC50 [2]: > 6.00

COc1cc2c(-n3nc(Nc4ccc(N5CCN(C6CCCCC6)CC5)cc4)nc3N)ncnc2cc1O [Compound 82, 4-(5-amino-3-(4-(4-cyclohexylpiperazin-1-yl)phenylamino)-1H-1,2,4-triazol-1-yl)-6-methoxyquinazolin-7-ol]
pIC50 [2]: > 6.00

COc1cc2ncnc(-n3nc(N)nc3Nc3ccc(N4CCN(C5CCCCC5)CC4)cc3)c2cc1OC [Compound 83, N^5-(4-(4-cyclohexylpiperazin-1-yl)phenyl)-1-(6,7-dimethoxyquinazolin-4-yl)-1H-1,2,4-triazole-3,5-diamine]
pIC50 [3]: > 6.00

CN1CCN(c2ccc(Nc3nc(N)n(-c4nccc5ccccc45)n3)cc2)CC1 [Compound 84, 1-(isoquinolin-1-yl)-N^3-(4-(4-methylpiperazin-1-yl)phenyl)-1H-1,2,4-triazole-3,5-diamine]
pIC50 [2]: > 6.00

CN1CCN(c2ccc(Nc3nc(N)n(-c4ncnc5ccc(Cl)cc45)n3)cc2)CC1 [Compound 85, 1-(6-chloroquinazolin-4-yl)-N^3-(4-(4-methylpiperazin-1-yl)phenyl)-1H-1,2,4-triazole-3,5-diamine]
pIC50 [2]: > 6.00

CN1CCN(c2ccc(Nc3nc(N)nn3-c3ncnc4ccc(Cl)cc34)cc2)CC1 [Compound 86, 1-(6-chloroquinazolin-4-yl)-N^5-(4-(4-methylpiperazin-1-yl)phenyl)-1H-1,2,4-triazole-3,5-diamine]
pIC50 [3]: > 6.00

Nc1nc(Nc2ccc(N3CCN(C4CCCCC4)CC3)c(F)c2)nn1-c1nccc2ccccc12 [Compound 87, N^3-(4-(4-cyclohexylpiperazin-1-yl)-3-fluroophenyl)-1-(isoquinolin-1-yl)-1H-1,2,4-triazole-3,5-diamine]
pIC50 [2]: > 6.00

CC(=O)N1CCN(c2ccc(Nc3nc(N)n(-c4nccc5ccccc45)n3)cc2)CC1 [Compound 88, 1-(4-(4-(5-amino-1-(isoquinolin-1-yl)-1H-1,2,4-triazol-3-ylamino)phenyl)piperazin-1-yl)ethanone]
pIC50 [2]: 5.00 to 6.00

CN1CCN(c2ccc(Nc3nc(N)n(-c4nccc5ccccc45)n3)cc2F)CC1 [Compound 90, N^3-(3-fluoro-4-(4-methylpiperazin-1-yl)phenyl)-1-(isoquinolin-1-yl)-1H-1,2,4-triazole-3,5-diamine]
pIC50 [2]: > 6.00

Nc1nc(Nc2ccc(N3CCN(C4CCCCC4)CC3)c(Cl)c2)nn1-c1nccc2ccccc12 [Compound 91, N^3-(3-chloro-4-(4-cyclohexylpiperazin-1-yl)phenyl)-1-(isoquinolin-1-yl)-1H-1,2,4-triazole-3,5-diamine]
pIC50 [2]: > 6.00

CN1CCN(c2ccc(Nc3nc(N)n(-c4ncc5c(n4)-c4ccccc4CC5)n3)cc2)CC1 [Compound 92, 1-(5,6-dihydrobenzo[h]quinazolin-2-yl)-N^3-(4-(4-methylpiperazin-1-yl)phenyl)-1H-1,2,4-triazole-3,5-diamine]
pIC50 [2]: > 6.00

Nc1nc(Nc2ccc(N3CCN(C4CCCCC4)CC3)cc2)nn1-c1ncc2c(n1)-c1ccccc1CC2 [Compound 93, N^3-(4-(4-cyclohexylpiperazin-1-yl)phenyl)-1-(5,6-dihydrobenzo[h]quinazolin-2-yl)-1H-1,2,4-triazole-3,5-diamine]
pIC50 [2]: > 6.00

Nc1nc(Nc2ccc(N3CCN(C4CC5CCC4C5)CC3)cc2)nn1-c1ccccn1 (stereo not shown) [Compound 94, N^3-(4-(4-(bicyclo[2.2.1]heptan-2-yl)piperazin-1-yl)phenyl)-1-(pyridin-2-yl)-1H-1,2,4-triazole-3,5-diamine]
pIC50 [2]: 5.00 to 6.00

Nc1nc(Nc2ccc(N3CCN(C4CC5CCC4C5)CC3)cc2)n(-c2nc3ccccc3s2)n1 (stereo not shown) [Compound 95, 1-(benzo[d]thiazol-2-yl)-N^5-(4-(4-(bicyclo[2.2.1]heptan-2-yl)piperazin-1-yl)phenyl)-1H-1,2,4-triazole-3,5-diamine]
pIC50 [3]: < 4.70

Nc1nc(Nc2ccc(N3CCN(C4CC5CCC4C5)CC3)cc2)nn1-c1nc2ccccc2s1 (stereo not shown) [Compound 96, 1-(benzo[d]thiazol-2-yl)-N^3-(4-(4-(bicyclo[2.2.1]heptan-2-yl)piperazin-1-yl)phenyl)-1H-1,2,4-triazole-3,5-diamine]
pIC50 [2]: 5.00 to 6.00

Nc1nc(Nc2ccc(N3CCN(C4CC5CCC4C5)CC3)cc2)nn1-c1cnc2ccccc2n1 (stereo not shown) [Compound 97, N^3-(4-(4-(bicyclo[2.2.1]heptan-2-yl)piperazin-1-yl)phenyl)-1-(quinoxalin-2-yl)-1H-1,2,4-triazole-3,5-diamine]
pIC50 [2]: 5.00 to 6.00

COc1cc2ncnc(-n3nc(Nc4ccc(N5CCN(C6CC7CCC6C7)CC5)cc4)nc3N)c2cc1OC (stereo not shown) [Compound 98, N^3-(4-(4-(bicyclo[2.2.1]heptan-2-yl)piperazin-1-yl)phenyl)-1-(6,7-dimethoxyquinazolin-4-yl)-1H-1,2,4-triazole-3,5-diamine]
pIC50 [2]: > 6.00

COc1cc2ncnc(-n3nc(N)nc3Nc3ccc(N4CCN(C5CC6CCC5C6)CC4)cc3)c2cc1OC (stereo not shown) [Compound 100, N^5-(4-(4-(bicyclo[2.2.1]heptan-2-yl)piperazin-1-yl)phenyl)-1-(6,7-dimethoxyquinazolin-4-yl)-1H-1,2,4-triazole-3,5-diamine]
pIC50 [3]: > 6.00

COc1cc2nc(Cl)nc(-n3nc(Nc4ccc(N5CCN(C6CC7CCC6C7)CC5)cc4)nc3N)c2cc1OC (stereo not shown) [Compound 101, N^3-(4-(4-(bicyclo[2.2.1]heptan-2-yl)piperazin-1-yl)phenyl)-1-(2-chloro-6,7-dimethoxyquinazolin-4-yl)-1H-1,2,4-triazole-3,5-diamine]
pIC50 [2]: 5.00 to 6.00

COc1cc2c(-n3nc(Nc4ccc(N5CCN(C6CC7CCC6C7)CC5)cc4)nc3N)nc(Cl)nc2cc1O (stereo not shown) [Compound 102, 4-(5-amino-3-(4-(4-(bicyclo[2.2.1]heptan-2-yl)piperazin-1-yl)phenylamino)-1H-1,2,4-triazol-1-yl)-2-chloro-6-methoxyquinazolin-7-ol]
pIC50 [2]: > 6.00

COc1cc2c(-n3nc(Nc4ccc(OCCN5CCCC5)cc4)nc3N)ncnc2cc1OCc1ccccc1 [Compound 104, 1-(7-(benzyloxy)-6-methoxyquinazolin-4-yl)-N^3-(4-(2-(pyrrolidin-1-yl)ethoxy)phenyl)-1H-1,2,4-triazole-3,5-diamine]
pIC50 [1]: < 4.70

COc1cc2ncnc(-n3nc(Nc4ccc(N5CCN(C)CC5)c(F)c4)nc3N)c2cc1OC [Compound 105, 1-(6,7-dimethoxyquinazolin-4-yl)-N^3-(3-fluoro-4-(4-methylpiperazin-1-yl)phenyl)-1H-1,2,4-triazole-3,5-diamine]
pIC50 [2]: > 6.00
